System: Hepa1-6/luc liver and lung metastasis
Assay: Liver and lung metastasis model
Assay type: in vivo, mouse
Settings: Hepa1-6/luc cells via spleen or tail vein, 300 µM in 200 µL i.v. every two days, 16 days, n = 5
Source text: Submitted to Advanced Science
effector T cells (CD45+CD3+CD8+)/(CD45+CD3+CD4+), tumor cells were stained with anti-CD45-FITC
(Biolegend), anti-CD3ε-PerCP-Cy5.5 (Biolegend), anti-CD4-APC (Biolegend), and anti-CD8a-PE (Biolegend)
antibodies according to the standard protocol. For evaluation of NK cells (CD45+CD3-NK1.1+), tumor cells
were stained with anti-CD45-FITC (Biolegend), anti-CD3-PE (Biolegend) and anti-CD49b-APC (Biolegend)
antibodies and examined using flow cytometry. For MDSCs (CD45+CD11b+Gr-1+) analysis, tumor cells were
stained with anti-CD45-FITC, anti-CD11b-BrilliantViolet-510 (Biolegend), anti -F4/80-PE (Biolegend), and
anti-Gr-1-APC (Biolegend) antibodies for flow cytometry examination (BD FACS Canto SORP, USA). The
software FlowJo V10.6.2 was used for data analysis. To further explore the immunomodulatory effects of FTP-
NPs. Tumor tissues were harvested for immune profiling. Plasma cytokine levels, including IL-6, IL-10, and
TNF-α, were measured using commercially available ELISA kits to assess the immune activation induced by
Experimental liver and lung metastasis model
Six-week-old male C57BL/6J mice (20–25 g) were used to establish liver and lung metastasis models. Hepa1-
6/luc cells (1 × 10^6 cells) were injected into the spleen or tail vein of the mice to induce liver or lung
metastasis, respectively. For the liver metastasis model, Hepa1-6/luc cells were injected into the spleen, allowing
tumor cells to circulate and establish metastases in the liver. For the lung metastasis model, Hepa1-6/luc cells
were injected via the tail vein, leading to the formation of metastases in the lungs. Following cell implantation, […]
euthanized, and metastases were assessed macroscopically. […]
injecting D-Luciferin (150 mg/kg) intraperitoneally, and tumor burden was quantified using the IVIS Spectrum […]
conducted, and metastatic lesions were assessed under an inverted microscope (Axiovert 200, Zeiss, Germany). […]
300 μM per injection) for mice. […] (b) Fluorescence quantized chart […]
experiments. Statistical significance was calculated by one-way ANOVA, *p < 0.050.(c, d) Photographs of lung […]

CC(C)(C)C(=O)Oc1ccc(S(=O)(=O)Nc2ccccc2C(=O)NCC(=O)O)cc1 [NEi, Sivelestat, reference compound]
liver and lung metastasis (bioluminescent signals, number of metastatic foci): obvious metastases

— publication PMC12767106, “In Situ Assembly of Transformable Monopeptide on Activated Neutrophils Attenuates NETs‐Induced Hepatocellular Carcinoma Metastasis by Disrupting NE Nuclear Translocation” (Advanced Science, 2025)
